Source: ChEMBL document CHEMBL5649168, “Discovery of a selective catalytic p300/CBP inhibitor that targets lineage-specific tumours” (Nature, 2017)
Active and inactive are the calls of the source. No cut-off for these calls is given here.

Assays:
NCI-H2081 = assay: Antiproliferative activity against human NCI-H2081 cells assessed as inhibition of cell viability incubated for 3 to 5 days by Celltiter-Glo luminescent assay; assay type: functional, cell-based
OCI-Ly3 = assay: Antiproliferative activity against human OCILY3 cells assessed as inhibition of cell viability incubated for 3 to 5 days by Celltiter-Glo luminescent assay; assay type: functional, cell-based
[1] = biological target: Protein kinase C theta type (Homo sapiens, UniProt Q04759); assay: Inhibition of PKCtheta (unknown origin)
Chain of Protein kinase C theta type (Q04759 whole entry): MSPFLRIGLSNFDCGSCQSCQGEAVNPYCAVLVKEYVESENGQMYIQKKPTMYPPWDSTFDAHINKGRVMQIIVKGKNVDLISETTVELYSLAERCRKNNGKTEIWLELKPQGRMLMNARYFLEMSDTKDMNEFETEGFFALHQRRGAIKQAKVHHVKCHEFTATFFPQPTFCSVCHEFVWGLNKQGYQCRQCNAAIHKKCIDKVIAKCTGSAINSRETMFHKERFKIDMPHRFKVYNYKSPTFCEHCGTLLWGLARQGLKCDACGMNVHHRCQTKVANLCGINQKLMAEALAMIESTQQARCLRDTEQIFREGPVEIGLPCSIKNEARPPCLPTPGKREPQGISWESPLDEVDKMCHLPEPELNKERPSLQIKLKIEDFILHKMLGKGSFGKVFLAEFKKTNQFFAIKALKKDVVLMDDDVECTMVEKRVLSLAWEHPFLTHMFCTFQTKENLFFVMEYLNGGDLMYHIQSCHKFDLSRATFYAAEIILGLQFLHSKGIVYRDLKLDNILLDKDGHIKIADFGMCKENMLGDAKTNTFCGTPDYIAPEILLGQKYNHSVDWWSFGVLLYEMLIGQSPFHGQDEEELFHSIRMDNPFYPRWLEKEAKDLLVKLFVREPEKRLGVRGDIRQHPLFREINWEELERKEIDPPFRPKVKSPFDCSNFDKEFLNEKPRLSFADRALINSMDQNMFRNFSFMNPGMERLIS

[2] = AUC in CB17 SCID mouse xenografted with LuCaP-77 CR cell at 200 mg/kg, ip administered for 7 days; assay type: ADME, organism-based; conditions: in vivo, time 7 day
DU-4475 = assay: Antiproliferative activity against human DU-4475 cells assessed as inhibition of cell viability incubated for 3 to 5 days by Celltiter-Glo luminescent assay; assay type: functional, cell-based
NCI-H128 = assay: Antiproliferative activity against human NCI-H128 cells assessed as inhibition of cell viability incubated for 3 to 5 days by Celltiter-Glo luminescent assay; assay type: functional, cell-based
[3] = biological target: Ca2+ channel (L, dihydropyridine site) (Homo sapiens, UniProt O60840+Q01668+Q13698+Q13936); assay: Inhibition of Ca2+ channel (L, dihydropyridine site) (unknown origin) at 10 uM by radioligand binding assay relative to control; assay type: protein assay
CWR22R = assay: Antiproliferative activity against human 22Rv1 cells assessed as inhibition of cell viability incubated for 3 to 5 days by Celltiter-Glo luminescent assay; assay type: functional, cell-based
[4] = biological target: RAC-alpha serine/threonine-protein kinase (Homo sapiens, UniProt P31749); assay: Inhibition of Akt1 (unknown origin)
Chain of RAC-alpha serine/threonine-protein kinase (P31749 whole entry): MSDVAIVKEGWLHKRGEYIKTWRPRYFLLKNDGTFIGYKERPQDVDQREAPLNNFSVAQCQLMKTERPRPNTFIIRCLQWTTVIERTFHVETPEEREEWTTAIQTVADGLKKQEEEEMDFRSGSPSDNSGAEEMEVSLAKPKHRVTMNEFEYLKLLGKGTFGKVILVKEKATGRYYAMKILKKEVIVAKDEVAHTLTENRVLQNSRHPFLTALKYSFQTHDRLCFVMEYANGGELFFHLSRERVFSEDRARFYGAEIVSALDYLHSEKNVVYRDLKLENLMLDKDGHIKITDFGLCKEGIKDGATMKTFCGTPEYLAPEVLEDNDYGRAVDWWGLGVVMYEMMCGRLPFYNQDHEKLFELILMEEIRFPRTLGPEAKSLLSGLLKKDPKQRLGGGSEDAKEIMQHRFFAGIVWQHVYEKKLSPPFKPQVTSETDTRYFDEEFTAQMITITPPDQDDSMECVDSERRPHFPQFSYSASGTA

NCI-H661 = assay: Antiproliferative activity against human NCI-H661 cells assessed as inhibition of cell viability incubated for 3 to 5 days by Celltiter-Glo luminescent assay; assay type: functional, cell-based
Raji = assay: Antiproliferative activity against human Raji cells assessed as inhibition of cell viability incubated for 3 to 5 days by Celltiter-Glo luminescent assay; assay type: functional, cell-based
Farage = assay: Antiproliferative activity against human Farage cells assessed as inhibition of cell viability incubated for 3 to 5 days by Celltiter-Glo luminescent assay; assay type: functional, cell-based
[5] = biological target: Glycogen synthase kinase-3 beta (Homo sapiens, UniProt P49841); assay: Inhibition of Gsk3beta (unknown origin)
Chain of Glycogen synthase kinase-3 beta (P49841 whole entry): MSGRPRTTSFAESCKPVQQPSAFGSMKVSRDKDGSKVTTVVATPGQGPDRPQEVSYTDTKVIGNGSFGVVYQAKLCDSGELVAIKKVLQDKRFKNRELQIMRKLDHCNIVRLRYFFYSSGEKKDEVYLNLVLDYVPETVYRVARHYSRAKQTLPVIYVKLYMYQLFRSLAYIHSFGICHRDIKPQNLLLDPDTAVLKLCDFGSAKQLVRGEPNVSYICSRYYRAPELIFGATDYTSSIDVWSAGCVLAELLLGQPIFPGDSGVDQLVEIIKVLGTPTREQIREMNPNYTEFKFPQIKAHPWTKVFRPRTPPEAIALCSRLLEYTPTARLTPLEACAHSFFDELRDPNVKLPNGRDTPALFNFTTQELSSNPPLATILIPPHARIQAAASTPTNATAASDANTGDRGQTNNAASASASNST

NCI-H2444 = assay: Antiproliferative activity against human NCI-H2444 cells assessed as inhibition of cell viability incubated for 3 to 5 days by Celltiter-Glo luminescent assay; assay type: functional, cell-based
SU-DHL-5 = assay: Antiproliferative activity against human SuDHL5 cells assessed as inhibition of cell viability incubated for 3 to 5 days by Celltiter-Glo luminescent assay; assay type: functional, cell-based
MDA-MB-436 = assay: Antiproliferative activity against human MDA-MB-436 cells assessed as inhibition of cell viability incubated for 3 to 5 days by Celltiter-Glo luminescent assay; assay type: functional, cell-based
SK-MEL-24 = assay: Antiproliferative activity against human SK-MEL-24 cells assessed as inhibition of cell viability incubated for 3 to 5 days by Celltiter-Glo luminescent assay; assay type: functional, cell-based
[6] = Inhibition of CDK9/Cyclin K (unknown origin); parameters: species or system Homo sapiens
OCI-Ly7 = assay: Antiproliferative activity against human OCILY7 cells assessed as inhibition of cell viability incubated for 3 to 5 days by Celltiter-Glo luminescent assay; assay type: functional, cell-based
[7] = biological target: Dual specificity mitogen-activated protein kinase kinase 1 (Homo sapiens, UniProt Q02750); assay: Inhibition of MEK1 (unknown origin)
Chain of Dual specificity mitogen-activated protein kinase kinase 1 (Q02750 whole entry, canonical isoform): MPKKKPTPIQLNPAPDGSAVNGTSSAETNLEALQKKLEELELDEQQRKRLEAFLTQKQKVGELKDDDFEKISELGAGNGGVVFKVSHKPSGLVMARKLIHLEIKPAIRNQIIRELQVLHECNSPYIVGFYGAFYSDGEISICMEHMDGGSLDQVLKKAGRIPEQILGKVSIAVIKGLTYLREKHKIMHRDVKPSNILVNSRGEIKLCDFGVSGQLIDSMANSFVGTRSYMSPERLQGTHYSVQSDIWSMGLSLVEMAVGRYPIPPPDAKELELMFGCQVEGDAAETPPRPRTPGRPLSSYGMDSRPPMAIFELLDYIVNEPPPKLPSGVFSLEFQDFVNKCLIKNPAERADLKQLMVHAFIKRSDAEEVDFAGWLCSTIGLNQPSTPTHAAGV

[8] = biological target: Casein kinase I isoform alpha (Homo sapiens, UniProt P48729); assay: Inhibition of Ck1alpha1 (unknown origin)
NCI-H211 = assay: Antiproliferative activity against human NCI-H211 cells assessed as inhibition of cell viability incubated for 3 to 5 days by Celltiter-Glo luminescent assay; assay type: functional, cell-based
[9] = biological target: NT-3 growth factor receptor (Homo sapiens, UniProt Q16288); assay: Inhibition of TrkC (unknown origin)
Chain of NT-3 growth factor receptor (Q16288 whole entry): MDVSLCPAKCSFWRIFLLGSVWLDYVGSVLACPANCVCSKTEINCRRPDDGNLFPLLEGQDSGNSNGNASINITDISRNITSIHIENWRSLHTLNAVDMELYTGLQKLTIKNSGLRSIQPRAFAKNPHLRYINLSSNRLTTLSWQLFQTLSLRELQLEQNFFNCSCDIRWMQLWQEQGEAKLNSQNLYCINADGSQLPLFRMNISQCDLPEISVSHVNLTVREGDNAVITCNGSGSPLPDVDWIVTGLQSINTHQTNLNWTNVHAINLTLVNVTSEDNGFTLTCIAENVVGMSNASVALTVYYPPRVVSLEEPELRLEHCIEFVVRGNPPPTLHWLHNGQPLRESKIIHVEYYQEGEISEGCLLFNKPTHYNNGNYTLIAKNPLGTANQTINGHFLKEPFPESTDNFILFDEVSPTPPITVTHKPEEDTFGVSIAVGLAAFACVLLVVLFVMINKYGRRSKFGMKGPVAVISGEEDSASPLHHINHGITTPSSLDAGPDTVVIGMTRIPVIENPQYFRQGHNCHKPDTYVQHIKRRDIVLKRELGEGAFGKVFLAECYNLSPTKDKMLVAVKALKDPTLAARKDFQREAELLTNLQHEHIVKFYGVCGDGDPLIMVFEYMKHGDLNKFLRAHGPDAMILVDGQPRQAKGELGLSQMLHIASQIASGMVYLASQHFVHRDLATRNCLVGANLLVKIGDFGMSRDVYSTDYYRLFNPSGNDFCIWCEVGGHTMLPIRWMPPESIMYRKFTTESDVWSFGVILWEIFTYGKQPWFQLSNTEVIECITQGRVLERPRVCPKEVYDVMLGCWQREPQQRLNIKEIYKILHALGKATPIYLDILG

JVM-2 = assay: Antiproliferative activity against human JVM-2 cells assessed as inhibition of cell viability incubated for 3 to 5 days by Celltiter-Glo luminescent assay; assay type: functional, cell-based
EMT6 = assay: Antiproliferative activity against mouse EMT6 cells assessed as inhibition of cell viability incubated for 3 to 5 days by Celltiter-Glo luminescent assay; assay type: functional, cell-based
LuCaP-77 CR cell = conditions: Homo sapiens, dose 100.0 mg/kg, time 7.0 day
KMS-11 = assay: Antiproliferative activity against human KMS-11 cells assessed as inhibition of cell viability incubated for 3 to 5 days by Celltiter-Glo luminescent assay; assay type: functional, cell-based
[10] = Tmax in CB17 SCID mouse xenografted with LuCaP-77 CR cell at 50 mg/kg, ip administered for 7 days; assay type: ADME, organism-based; conditions: in vivo, time 7 day
Focal adhesion kinase 1 = Focal adhesion kinase 1 (Homo sapiens, UniProt Q05397); assay: Inhibition of FAK (unknown origin)
Chain of Focal adhesion kinase 1 (Q05397 whole entry): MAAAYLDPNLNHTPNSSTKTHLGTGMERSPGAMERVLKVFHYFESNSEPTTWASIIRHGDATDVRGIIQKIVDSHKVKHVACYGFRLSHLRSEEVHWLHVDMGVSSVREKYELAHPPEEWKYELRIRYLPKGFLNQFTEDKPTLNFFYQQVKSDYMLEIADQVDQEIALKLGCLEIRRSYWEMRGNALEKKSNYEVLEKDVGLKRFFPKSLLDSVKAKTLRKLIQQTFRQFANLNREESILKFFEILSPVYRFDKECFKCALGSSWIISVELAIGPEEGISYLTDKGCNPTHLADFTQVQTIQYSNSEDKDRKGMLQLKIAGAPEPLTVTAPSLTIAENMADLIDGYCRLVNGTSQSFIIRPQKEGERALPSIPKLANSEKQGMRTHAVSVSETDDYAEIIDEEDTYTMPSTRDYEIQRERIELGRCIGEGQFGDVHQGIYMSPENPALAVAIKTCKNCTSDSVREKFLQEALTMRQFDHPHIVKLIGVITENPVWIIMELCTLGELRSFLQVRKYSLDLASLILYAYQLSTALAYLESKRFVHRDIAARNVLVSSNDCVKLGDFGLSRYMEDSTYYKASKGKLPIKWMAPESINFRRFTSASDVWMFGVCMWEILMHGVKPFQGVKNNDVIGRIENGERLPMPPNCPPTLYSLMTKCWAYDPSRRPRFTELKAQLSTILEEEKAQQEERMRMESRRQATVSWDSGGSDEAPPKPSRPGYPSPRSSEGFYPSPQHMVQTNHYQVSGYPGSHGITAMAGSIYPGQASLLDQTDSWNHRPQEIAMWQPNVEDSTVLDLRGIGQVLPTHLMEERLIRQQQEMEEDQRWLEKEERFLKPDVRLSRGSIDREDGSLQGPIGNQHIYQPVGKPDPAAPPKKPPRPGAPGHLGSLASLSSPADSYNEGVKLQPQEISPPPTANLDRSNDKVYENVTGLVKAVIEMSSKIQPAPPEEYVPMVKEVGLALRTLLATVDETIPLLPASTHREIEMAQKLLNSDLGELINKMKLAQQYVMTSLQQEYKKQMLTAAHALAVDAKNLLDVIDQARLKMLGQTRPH

[11] = biological target: Mitogen-activated protein kinase 1 (Homo sapiens, UniProt P28482); assay: Inhibition of Erk2 (unknown origin)
Chain of Mitogen-activated protein kinase 1 (P28482 whole entry): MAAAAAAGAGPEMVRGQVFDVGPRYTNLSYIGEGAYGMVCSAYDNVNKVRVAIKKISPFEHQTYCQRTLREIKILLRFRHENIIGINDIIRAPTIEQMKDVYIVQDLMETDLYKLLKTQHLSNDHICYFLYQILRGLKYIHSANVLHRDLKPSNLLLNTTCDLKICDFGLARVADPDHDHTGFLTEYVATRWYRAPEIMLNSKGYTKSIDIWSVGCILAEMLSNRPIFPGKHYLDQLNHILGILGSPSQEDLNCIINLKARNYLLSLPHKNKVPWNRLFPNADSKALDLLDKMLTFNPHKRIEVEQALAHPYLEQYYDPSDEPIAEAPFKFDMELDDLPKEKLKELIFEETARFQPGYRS

[12] = biological target: Dual specificity tyrosine-phosphorylation-regulated kinase 1B (Homo sapiens, UniProt Q9Y463); assay: Inhibition of DYRK1B (unknown origin)
Chain of Dual specificity tyrosine-phosphorylation-regulated kinase 1B (Q9Y463 whole entry): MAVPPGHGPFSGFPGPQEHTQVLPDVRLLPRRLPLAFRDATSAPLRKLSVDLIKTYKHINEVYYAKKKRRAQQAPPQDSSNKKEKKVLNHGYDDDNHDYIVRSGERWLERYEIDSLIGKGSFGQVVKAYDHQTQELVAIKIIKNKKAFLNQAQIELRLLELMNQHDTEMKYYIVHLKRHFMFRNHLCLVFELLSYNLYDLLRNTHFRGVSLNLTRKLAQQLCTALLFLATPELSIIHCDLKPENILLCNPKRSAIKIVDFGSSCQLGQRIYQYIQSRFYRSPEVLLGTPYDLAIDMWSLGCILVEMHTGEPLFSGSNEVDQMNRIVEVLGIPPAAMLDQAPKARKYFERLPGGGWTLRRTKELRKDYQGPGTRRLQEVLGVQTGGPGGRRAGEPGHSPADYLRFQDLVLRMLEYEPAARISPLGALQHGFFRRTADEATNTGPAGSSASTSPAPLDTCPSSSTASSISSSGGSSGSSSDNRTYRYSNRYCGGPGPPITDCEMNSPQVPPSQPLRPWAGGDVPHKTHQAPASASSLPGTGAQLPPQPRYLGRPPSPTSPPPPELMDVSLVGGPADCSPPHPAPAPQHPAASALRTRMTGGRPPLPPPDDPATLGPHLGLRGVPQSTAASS

CNC(=O)Nc1ccc2c(c1)CC[C@@]21OC(=O)N(CC(=O)N(Cc2ccc(F)cc2)[C@@H](C)C(F)(F)F)C1=O [A-485]
EC50 (NCI-H2081): > 10 µM | EC50 (OCI-Ly3): 0.49 µM | IC50 [1]: > 10 µM | AUC at 168 h [2]: 2950 µg·h/mL | EC50 (DU-4475): 0.67 µM | EC50 (NCI-H128): > 10 µM | inhibition at 10 µM [3]: -9% | EC50 (CWR22R): 0.32 µM | IC50 [4]: > 10 µM | EC50 (NCI-H661): 7.66 µM | EC50 (Raji): 0.46 µM | EC50 (Farage): > 10 µM | IC50 [5]: > 10 µM | EC50 (NCI-H2444): 5.92 µM | EC50 (SU-DHL-5): 0.76 µM | EC50 (MDA-MB-436): > 10 µM | EC50 (SK-MEL-24): > 10 µM | IC50 [6]: > 10 µM | EC50 (OCI-Ly7): 1.81 µM | IC50 [7]: > 10 µM | IC50 [8]: > 10 µM | EC50 (NCI-H211): 1.5 µM | IC50 [9]: > 10 µM | EC50 (JVM-2): > 10 µM | EC50 (EMT6): 0.5 µM | inhibition (LuCaP-77 CR cell): inactive | EC50 (KMS-11): 0.24 µM | Tmax [10]: 3 h | IC50 (Focal adhesion kinase 1): > 10 µM | IC50 [11]: > 10 µM | IC50 [12]: > 10 µM
